Experimental findings from ChEMBL document CHEMBL1127281, “Synthesis and anti-herpes activity of some a-ring functionalized dehydroabietane derivatives” (Bioorg Med Chem Lett, 1994) are described below.

The structures appear in SMILES notation. In brackets after ≈: the same amount, converted by molar mass.

A short description of assay [1]: Concentration required for 50% inhibition of herpes simplex virus 2(HSV-2) using standard plaque reduction assay in vero cells. The format is functional, cell-based. The conditions noted are these: Chlorocebus sabaeus.
For the next assay, the system named is Vero. As to the kind of experiment: Concentration required for 50% inhibition of herpes simplex virus 2 (HSV-2) using standard plaque reduction assay in vero cells. The format is functional, cell-based. The conditions noted are these: Chlorocebus sabaeus. (In a plaque reduction assay, fewer plaques than in the control indicate reduced infectivity or spread.)

As a reminder, the IC50 is the concentration at which inhibition is half-maximal. A low value points to greater potency in that assay. As for `CC(C)c1ccc2c(c1)CC[C@H]1C(=O)[C@@H](O)CC[C@]21C`, 8 µg/mL (≈ 29.4 µM) corresponded to half-maximal inhibition in assay [1] (IC50).
As to `CC(C)c1ccc2c(c1)CC[C@H]1[C@](C)(Sc3ccccn3)CCC[C@]21C`, the midpoint of inhibition in assay [1], the IC50, lay at 20 µg/mL (≈ 54.7 µM).
Regarding `C=C1[C@@H](O)CC[C@]2(C)c3ccc(C(C)C)cc3CC[C@@H]12`, the IC50 in assay [1] turned out to be 3 µg/mL (≈ 11.1 µM).
Still for that read-out and setting: the same measure for `C[C@@]1(CO)[C@H](O)CC[C@@]2(C)[C@H]1CCC1C[C@@H]3C[C@@]12CC[C@]3(O)CO` (stereo partly drawn): 0.2 µg/mL (≈ 0.591 µM); for `C=C1CCC[C@]2(C)c3ccc(C(C)C)cc3CC[C@@H]12`: 10 µg/mL (≈ 39.3 µM).
The compound `CC(C)c1ccc2c(c1)CC[C@H]1[C@@H](CO)[C@@H](O)CC[C@]21C` registered an IC50 in assay [1] of 20 µg/mL (≈ 69.3 µM). Against the preceding compound, the IC50 is about 2-fold higher.
The same measure, in the same setting: the same measure for `CC(C)c1ccc2c(c1)CC[C@H]1[C@]3(CCC[C@]21C)CO3`: 20 µg/mL (≈ 74 µM); for `CC(C)c1ccc2c(c1)CC[C@H]1[C@@H](CO)CCC[C@]21C`: 9 µg/mL (≈ 33 µM).
Still for that read-out and setting: in the case of `CC(C)c1ccc2c(c1)CC[C@H]1C(=O)CCC[C@]21C` it was 14 µg/mL (≈ 54.6 µM); in that of `CC(C)c1ccc2c(c1)CC[C@H]1[C@@](O)(CO)[C@@H](O)CC[C@]21C`, 9 µg/mL (≈ 29.6 µM).
`CC(C)c1ccc2c(c1)CC[C@H]1[C@@](O)(CO)CCC[C@]21C`: the IC50 in assay [1] is 14 µg/mL (≈ 48.5 µM).
The same measure, in the same setting: in the case of `CC(C)c1ccc2c(c1)CC[C@H]1[C@@H](O)CCC[C@]21C` it was 15 µg/mL (≈ 58 µM); in that of `CC(C)c1ccc2c(c1)CC[C@H]1[C@H](O)[C@@H](O)CC[C@]21C`, 19 µg/mL (≈ 69.2 µM).
The same measure, in the same setting: the same measure for `Nc1nc2c(ncn2COCCO)c(=O)[nH]1` [ACYCLOVIR]: 1.5 µg/mL (≈ 6.66 µM); for `CC(C)c1ccc2c(c1)CC[C@H]1[C@](C)(C(=O)O)CCC[C@]21C` [DEHYDROABIETIC ACID]: 20 µg/mL (≈ 66.6 µM).
In turn, `COC(=O)[C@]1(C)CCC[C@]2(C)c3ccc(C(C)C)cc3CC[C@@H]12` [METHYL DEHYDROABIETATE] came in with a half-inhibitory concentration (IC50) in assay [1] of 20 µg/mL (≈ 63.6 µM).
Compound `CC(C)c1ccc2c(c1)CC[C@H]1[C@](C)(CO)CCC[C@]21C` [POMIFERIN A] returned an IC50 in assay [1] of 17 µg/mL (≈ 59.3 µM). The IC50 values of the last two compounds are within 1.5-fold of each other.
In the assay on Vero, `C[C@]12CC[C@]3(C1)[C@H](CC2=O)C[C@@H](OC(=O)c1ccccc1)[C@H]1[C@](C)(C(=O)O)CCC[C@@]13C` [SCOPADULCIC ACID B] yielded an IC50 of 0.2 µg/mL (≈ 0.456 µM).
